Data from patent US20240301408A1, “MICRORNA 195 COMPOSITIONS AND METHODS FOR TREATING COGNITIVE IMPAIRMENT” (UNITED STATES GOVERNMENT AS REPRESENTED BY THE DEPARTMENT …, priority 2021, published 2024).

Key:
[1] = system: synaptojanin 1 (synj1); test: synj1 expression in cultured mouse neurons after AAV2 miRNA over-expression (western blot, qPCR); assay type: cell-based
Procedure: Mouse Neuronal and human iPSC culture. Primary cortical neurons were cultured (Zhu L et al., Proc Natl Acad Sci USA 2015, and Zhu L et al., J Biol Chem 2013) before being fixed and stained for confocal microscopy analysis (Zeiss LSM) (Berg I et al., Nat Protoc 2010). In some conditions, bovine serum albumin (BSA) or receptor-associated protein (RAP) was included in the cultured media (N=3/group). Alternatively, cultured neurons were transfected with adeno-associated virus 2 (AAV2)-containing miR-195-5p or miR-374 or scramble controls for 5 days before subjected to analysis. The ApoE4^+/+ and ApoE3^+/+ iPSCs were differentiated into neural progenitor cells (NPCs) by dual SMAD inhibition followed by neural rosette selection and forebrain-specific patterning by 20 ng/ml FGF2 exposure (Bowles K R et al., PloS one 2019, and Tcw J et al., Stem cell reports 2017). These NPCs were purified by MACS for CD271^−/CD133^+ (Bowles K R et al., PloS one 2019) and differentiated to cortical neurons (Bardy C et al., Proc Natl Acad Sci USA 2015, and Paquet D et al., Nature 2016) and a homogeneous population of astrocytes (Tcw J et al., Stem cell reports 2017, and Shaltouki A et al., Stem Cells 2013) before subjected to viral transfection and confocal microscopy analysis. Alternatively, mouse cortical neurons derived from ApoE4^+/+ and ApoE3^+/+ KI mice with synj1^+/+ or synj1^−/− genotypes were co-cultured with ApoE4^+/+ and ApoE3^+/+ iPSC-derived pure astrocytes. In some experiments, cultured neurons were transfected with AAV2-containing miR-195-5p, scramble controls or miR195 inhibitors that specifically prevent miR-195-5p binding to its target mRNA before co-culturing with iPSC-derived astrocytes. Cultured iPSC-derived neurons and astrocytes were then incubated with lysotracker red for various time periods before fixation and double-stained for pTau and a nuclear marker DAPI (blue) for confocal microscopy analysis (Zeiss). N=4-5/condition.
Brain and neuronal sample preparation and biochemical analysis. Snap-frozen mouse hemi-brains or cultured neurons were harvested in lysis buffer (Lane R F et al., The Journal of neuroscience 2010) and processed via step-wise solubilization (Lane R F et al., The Journal of neuroscience 2010, and Kawarabayashi T et al. The Journal of neuroscience 2001) followed by SDS-PAGE to determine levels of synj1, dyn1, holoAPP, and CTFs. Levels of Aβ42, Aβ40, pTau, Tau and ApoE were determined using high-sensitive ELISA kits. Some tissue was used for miRNA and RNA extraction followed by qPCR and RNA-seq analysis. Some animals underwent perfusion followed by brain tissue section for immunohistochemical staining of amyloid plaque, synj1 and pTau.
Statistical analysis. The sample sizes of each experiment were chosen based on power calculations derived from previous similar studies which allowed the determination of group sizes needed to achieve statistically significant results. […] Levels of miR-195-5p and miR-374 were normalized to U6 and RNU6B (internal controls) while synj1 mRNA normalized to GAPDH and 18s, and then expressed as Log2fold of changes when compared to controls. Levels of synj1, dyn1, pTau, Tau, and holoAPP were normalized to β-actin levels and expressed as a percentage of the control. Absolute Aβ42, Aβ40, pTau, Tau, and ApoE concentrations were quantitatively determined by ELISA and expressed as a percentage of the control. […] Pearson correlation coefficients were calculated to determine the linear relationship between the two variables. […]

[2] = system: microglia-specific gene profiles, E4FAD mouse brain; test: scRNA-seq of EFAD mouse brains with miR-195-5p over-expression; assay type: in vivo; settings: Mic.C0 and Mic.C2 microglial sub-clusters; N=4 pooled mice/condition
Procedure: Changes in microglia-specific gene profiles with miR-195-5p over-expression in E4FAD mouse brain. scRNA-seq analysis of EFAD mouse brains with miR-195-5p over-expression was performed (FIG. 15; N=4 pooled mice/condition). Single cell suspensions were prepared and processed with the 10× Genomics Chromium platform. After quality control (QC), the gene-level UMIs data were normalized by a regularized negative binomial regression analysis (Hafemeister, C. & Satija, R. Genome Biology 20, 296, (2019)). Genes were selected that were detected in more than one cell and cells with sequencing reads in 200˜4,000 genes and mitochondrial read rate of less than 50%. […] The significant principal components as determined by a JackStraw permutation procedure were selected for cell clustering using Seurat's graph-based clustering approach (Butler, A., et al. Nature Biotechnology 36, 411, (2018)). […] After removing predicted doublets from the clusters, the cluster marker genes were observed and the expression patterns of known gene markers were analyzed to annotate clusters into major cell-types: excitatory neurons (Ex; marked by NRGN), inhibitory neurons (In; GAD1), astrocytes (Ast; AQP4, GFAP), oligodendrocytes (Oli; PLP1, MBP), microglia (Mic; CSF1R, CD74), oligodendrocyte progenitor cells (Opc; VCAN), and endothelial cells (End; FLT1). […]

[3] = ApoE3+/+ neurons with miR-195 over-expression
[4] = ApoE4+/+ neurons with miR-195 over-expression

UAGCAGCACAGAAAUAUUGGC (chemistry not given here) [miR-195-5p, over-expressed via AAV2-containing miR-195-5p from ABM Inc]
synj1 mRNA levels [1, 3]: −1.084±0.035 log2FC | synj1 protein levels [1, 3]: 70.9±21.2 % of controls | synj1 mRNA levels [1, 4]: −7.751±0.043 log2FC | synj1 protein levels [1, 4]: 48.0±9.84 % of controls | synj1 protein levels ([1]; ApoE-/- hippocampal neurons in presence of ApoE4-CM, miRNA over-expression, N=4/group): 62.87±4.48 % of controls | top GO pathways enriched with microglial sub-cluster DEGs [2]: down-regulates innate immune system and effector responses
